Consider 2 substances from publication PMC12081870 (Communications Biology, 2025).

Values joined by “and” are separate entries in the source; they are usually repeats but may differ in a detail not shown here. Equal entries are not always repeated.

The target of one experiment is Sla1 third SH3 domain. Also on record: method as in PMID 17244534. To be noted: third SH3 domain of Sla1; ref [10]; read-out: binding to ubiquitin affinity; cited from earlier work.
The test system of a further experiment is yeast cells. Nature of the experiment: Lucifer yellow bulk phase endocytosis. The class given is cell-based, Saccharomyces cerevisiae. The conditions noted are these: 90 minutes at 30°C, vs wild type. The procedure: (§1) Supplementary Information.
(§2) Methods used in Supplementary Data
(§3) Yeast strains, growth and staining
(§4) Yeast plasmids used in this study are listed in Supplementary table 1 and yeast strains used in Supplementary table 2. Unless stated otherwise, cells were grown with rotary shaking at 30°C in liquid YPD medium (1% yeast extract, 2% Bacto-peptone, 2% glucose supplemented with 40 μg/ml adenine) or in synthetic medium (0.67% yeast nitrogen base, 2% glucose) with appropriate supplements. Growth assays used solid medium with 2% agar added to above. All strains carrying fluorescent tags have growth properties similar to isogenic control strains with the exception of strains carrying dual reporters where lifetimes were longer for both wild type and mutant strains (in Figure 9D). Point mutations in LAS17 were generated using site directed mutagenesis (Agilent). DNA cassettes carrying mutations for integration were transformed into KAY1801. Mutant colonies were counter-selected on minimal medium, containing 0.005% uracil and 0.1% 5’-Fluoroorotic Acid (5-FOA; Melford labs). […]
(§5) expressing strains on plates on which a disc carrying 10 µl of latrunculin-A of varying concentrations was placed (white disc). […] They were then scored according to the extent of uptake and categorised according to the key shown. >100 cells were visualised for each strain in each of 3 independent experiments. […]

The test system of a further experiment is Abp1. Briefly: Lifetime of Abp1-GFP patches at endocytic sites. To be noted: las17 P387A background vs wild type; wt n = 183, P387A n = 96. The class given is cell-based, Saccharomyces cerevisiae. The procedure: (§6) For live-cell imaging, cells expressing tagged proteins were visualised after growing to early log phase. Analysis was carried out at room temperature (22 °C). Time-lapse of wild-type and mutated Las17-GFP was acquired using OMX DeltaVision V4 and a 60×/1.42 NA objective. Images were taken simultaneously on separate scientific complementary metal oxide semiconductor (sCMOS) cameras (30 msec exposure). Seven 250 nm sections were acquired every 0.5 sec (241 time points). The stacks were then deconvolved and processed, using SoftWorx. Protein localisation and lifetime was analysed from those projections. Fiji software was used to assemble movies and kymographs, to track and record behaviour of individual spots. Graphs show mean ± SD. Sample size Fig. 9A wt n = 67, P387A n = 52; 9B wt n = 183, P387A n = 96; 9 C wt n = 156, P387A n = 132. Where appropriate data was tested for normal distribution using Graphpad Prism software, and then subjected to the appropriate test as described in the methods for each experiment type.
(§7) Lifetime and behaviour of cell reporter proteins using fluorescence microscopy: Graphs show mean ± SD. Sample size Fig. 9A wt n = 67, P387A n = 52; 9B wt n = 183, P387A n = 96; 9 C wt n = 156, P387A n = 132. Unpaired Mann Whitney statistical analysis of patch lifetimes was carried out using Graphpad Prism software, **** denotes two tailed P value of <0.0001.

The subject of experiment [1] is Las17-GFP and Arc15-mCherry. Briefly: Dual-reporter lifetimes, Las17-GFP and Arc15-mCherry co-localisation. The class given is cell-based, Saccharomyces cerevisiae. Also noted: lifetime, GFP alone / lifetime, GFP and RFP / lifetime, RFP: unit not given here. The procedure: A size bar for each set of kymographs is shown on the upper right of each set. For (A) and (C) size bar is 100 nm and for B is 200 nm. Error bars are standard deviation. […] The site of interest is labelled in the first two time panels with a white arrow. Exposure 0.5 sec with 1 second time lapse. 120 s recorded. […] Error bars are standard deviation.
Individual spots were analysed for lifetimes and behaviours.
Yeast strains used in this study are listed in Supplementary table 2 and plasmids used in Supplementary table 1. Unless stated otherwise, cells were grown with rotary shaking at 30 °C in liquid YPD medium (1% yeast extract, 2% Bacto-peptone, 2% glucose supplemented with 40 μg/ml adenine) or in synthetic medium (0.67% yeast nitrogen base, 2% glucose) with appropriate supplements. […] DNA cassettes carrying mutations for integration were transformed into KAY1801. Mutant colonies were counter-selected on minimal medium, containing 0.005% uracil and 0.1% 5’-Fluoroorotic Acid (5-FOA; Melford laboratories). Allele exchange, in growing Ura3^-, 5-FOA resistant colonies, was confirmed by PCR and sequencing.
as §6, with “Time-lapse of wild-type and mutated Las17-GFP was acquired using OMX DeltaVision V4 and a 60×/1.42 NA objective.” left out, “Sample size Fig. 9A wt n = 67, P387A n = 52; 9B wt n = 183, P387A n = 96; 9 C wt n = 156, P387A n = 132.” left out

The test system of experiment [2] is Las17 and las17 P387A expressing yeast strains. Nature of the experiment: Latrunculin-A halo assay on yeast. The class given is cell-based, Saccharomyces cerevisiae. The conditions noted are these: sole Las17 in cells, words. As to the method: as §1, §2, §3, §4, §5
Experiment [3] concerns Arc15-mCherry (Arp2/3 complex). Nature of the experiment: Lifetime of Arc15-mCherry patches at endocytic sites. The format is cell-based, Saccharomyces cerevisiae. To be noted: las17 P387A background vs wild type; wt n = 156, P387A n = 132. The procedure: as §6, §7
For experiment [4], the system named is F-actin organisation in yeast cells. Nature of the experiment: Rhodamine-phalloidin staining, actin organisation in cells. The class given is cell-based, Saccharomyces cerevisiae. To be noted: vs wild type cells. The procedure: as §1, §2, §3, §4, §5
A further experiment concerns las17 P387A yeast strain. Briefly: Growth of yeast, temperature sensitivity. The class given is cell-based, Saccharomyces cerevisiae. To be noted: range of temperatures, sole Las17 in cells. As to the method:
as §1, §2, §3, §4, §5

The mark [5] stands for this setting: Las17-GFP / Arc15-mCherry dual-label strain.
Setting [6] is: sheet Fig9E, individual endocytic patches, one per cell.

Turning to ubiquitin, the Kd at Sla1 third SH3 domain is 39 µM.
Take “las17 P387A: full-length Las17 with P387A, integrated in yeast in place of wild type LAS17”: the bulk phase endocytosis entry in the experiment with yeast cells is “slower than in wild type cells”. Further, the “lifetime of Abp1 patches” value in the experiment on Abp1 is “increased lifetime”. Also, in experiment [1] (setting [5]), the “duration of co-localization of Las17-GFP and Arc15-mCherry” value came out at 28 s; the “time of Arc15-mCherry alone after Las17 disassembly” value came to 15 s; the “time of Las17 at the site before Arc15 is recruited” value was “about 40 s”. Besides, in experiment [1] (setting [6]), the “lifetime, GFP alone” value was 30 and 22 and 44 and 66; the “lifetime, GFP and RFP” value was 46 and 78 and 88; the “lifetime, RFP” value is 62 and 92 and 108. Moreover, the “sensitivity to latrunculin-A” value in experiment [2] was “increase in sensitivity to latrunculin-A”. Moreover, the “lifetime of Arc15 patches” value in experiment [3] was “increased lifetime”. Also, the “actin organisation in cells” value in experiment [4] is “less well polarised”. The growth entry with las17 P387A yeast strain is given as “able to support growth across a range of temperatures”.
